Results reported in US12653800B2, “Small molecule inhibitors of TLR2 signaling” (University of Maryland, Baltimore, priority 2015, dated 2026).

Columns and labels:
Format in all cases: cell-based
[1] = molecular target: TLR2/6 (Mus musculus, UniProt Q9QUN7); test: Cytokine mRNA in murine peritoneal macrophages stimulated with TLR2/6 agonists (P2C, zymosan)
[2] = molecular target: T1, TLR4 (Mus musculus, UniProt Q9QUK6); test: Cytokine mRNA in murine peritoneal macrophages stimulated with TLR4 agonists (LPS, HKEC)
T1 sequence (Q9QUK6 26-835): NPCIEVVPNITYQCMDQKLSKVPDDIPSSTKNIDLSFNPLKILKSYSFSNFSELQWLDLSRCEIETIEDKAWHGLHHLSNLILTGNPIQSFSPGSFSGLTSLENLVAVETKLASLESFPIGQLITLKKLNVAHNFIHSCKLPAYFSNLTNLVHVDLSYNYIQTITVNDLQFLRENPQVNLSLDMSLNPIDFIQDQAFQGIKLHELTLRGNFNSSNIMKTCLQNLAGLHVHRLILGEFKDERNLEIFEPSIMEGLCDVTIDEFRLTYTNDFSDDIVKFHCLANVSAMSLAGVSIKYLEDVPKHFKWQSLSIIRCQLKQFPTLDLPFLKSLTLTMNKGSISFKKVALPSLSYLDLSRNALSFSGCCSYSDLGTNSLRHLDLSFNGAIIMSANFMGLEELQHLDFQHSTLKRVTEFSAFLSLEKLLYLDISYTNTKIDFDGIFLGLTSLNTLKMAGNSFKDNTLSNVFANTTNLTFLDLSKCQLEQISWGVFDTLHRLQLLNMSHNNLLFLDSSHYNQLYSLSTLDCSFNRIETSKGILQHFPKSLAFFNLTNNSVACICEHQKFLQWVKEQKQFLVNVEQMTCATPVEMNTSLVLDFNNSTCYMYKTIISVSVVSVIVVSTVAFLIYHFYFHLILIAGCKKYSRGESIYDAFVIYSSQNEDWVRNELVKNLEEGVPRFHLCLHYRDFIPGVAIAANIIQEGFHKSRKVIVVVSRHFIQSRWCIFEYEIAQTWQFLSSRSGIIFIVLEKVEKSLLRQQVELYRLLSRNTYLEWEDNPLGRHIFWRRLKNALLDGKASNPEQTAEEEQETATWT
T1 sequence (Q9JHF9 19-160 partner): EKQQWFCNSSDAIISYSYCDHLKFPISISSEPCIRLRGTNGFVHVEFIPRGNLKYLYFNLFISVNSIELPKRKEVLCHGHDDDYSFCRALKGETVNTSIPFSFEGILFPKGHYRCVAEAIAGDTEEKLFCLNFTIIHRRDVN

[3] = molecular target: T2, TLR2/1 (Homo sapiens, UniProt O60603); test: NF-κβ (ELAM)-luciferase reporter assay in transiently transfected HEK293T cells, P3C; parameters: expressed in transfected cells; host or cells: HEK293T, transient transfection (Superfect); conditions: P3C 50 ng/mL 5 hrs; for IC50: NF-κβ reporter assay in HEK293T cells, 1 μM-250 μM, read-out: IC50 for human TLR2/1 signaling
T2 sequence (O60603 21-784): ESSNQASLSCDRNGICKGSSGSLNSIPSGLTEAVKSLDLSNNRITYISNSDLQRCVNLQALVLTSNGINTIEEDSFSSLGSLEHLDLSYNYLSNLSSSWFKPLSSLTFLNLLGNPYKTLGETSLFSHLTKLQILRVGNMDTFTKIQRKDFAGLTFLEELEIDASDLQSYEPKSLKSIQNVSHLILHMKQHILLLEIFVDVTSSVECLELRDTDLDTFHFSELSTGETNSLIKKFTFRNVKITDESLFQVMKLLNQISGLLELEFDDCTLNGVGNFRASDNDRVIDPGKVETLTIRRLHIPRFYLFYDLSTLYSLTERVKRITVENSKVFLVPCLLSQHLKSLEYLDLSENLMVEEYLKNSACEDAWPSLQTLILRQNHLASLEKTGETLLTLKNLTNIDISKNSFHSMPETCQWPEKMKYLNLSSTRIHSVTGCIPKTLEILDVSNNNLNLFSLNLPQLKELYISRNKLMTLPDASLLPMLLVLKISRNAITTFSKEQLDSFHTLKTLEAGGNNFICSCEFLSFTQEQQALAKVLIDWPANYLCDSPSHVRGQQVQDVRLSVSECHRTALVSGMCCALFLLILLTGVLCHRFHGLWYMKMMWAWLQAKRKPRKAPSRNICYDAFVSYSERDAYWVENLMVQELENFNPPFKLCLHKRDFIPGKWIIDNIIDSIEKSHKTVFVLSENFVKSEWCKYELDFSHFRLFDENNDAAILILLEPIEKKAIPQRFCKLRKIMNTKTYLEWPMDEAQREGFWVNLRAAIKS
Procedure: (§1) FIG. 8. C29 inhibits hTLR2/1- and hTLR2/6-induced NF-κβ activation. (A, B) HEK293T cells were transiently transfected with reporter constructs for ELAM-luciferase, Renilla-luciferase, and either pcDNA3.1 or pcDNA3-YFP-hTLR2. Cells were pretreated for 1 hr with media, vehicle (65 μM NaOH), or C29 (50 μM) and treated with P3C or P2C (50 ng/mL) for 5 hrs in the presence of media, vehicle, or C29. Lysates were prepared and the dual-luciferase assay performed. Results are representative of 3 independent experiments each carried out in duplicate (**, p≤0.01; ***, p≤0.001).
(§2) FIG. 9. C29 is species-specific and blocks human TLR2/6 signaling, but not murine TLR2/6 signaling. (A-D) HEK293T cells were transiently transfected with reporter constructs for ELAM-luciferase, Renilla-luciferase, and pcDNA3.1 in combination with/without pcDNA3-YFP-hTLR2, pFLAG-CMV1-hTLR1, pcDNA3-CFP-hTLR6, pcDNA3.1-mTLR2-CFP, pcDNA3.1-mTLR1-YFP, or pcDNA3.1-mTLR6-CFP. Cells were pretreated for 1 hr with media, vehicle (65 μM NaOH), or C29 (50 μM) and then treated with P3C or P2C (50 ng/mL) for 5 hrs in the presence of media, vehicle, or C29. Lysates were prepared and the dual-luciferase assay performed. Panels A and B represent the mean±SEM from 3 independent experiments and panels C and D represent the mean±SEM from 2 independent experiments each carried out in duplicate (*, p≤0.05; **, p≤0.01).
FIG. 12. C29 L blocks human TLR2/1 and TLR2/6 signaling comparably to C29 in HEK293T cells. (A-D) HEK293T cells were transiently transfected with reporter constructs for ELAM-luciferase, Renilla-luciferase, and pcDNA3-YFP-hTLR2. Cells were pretreated for 1 hr with C29 or C29L (1 μM-250 μM) and treated with P3C or P2C (50 ng/mL) for 5 hrs in the presence of C29 or C29L. […]
HEK293T cells were cultured and plated overnight in 12-well tissue culture plates (2×10^5 cells/well). […] Cells were lysed in a passive lysis buffer (Promega, Madison, WI) and firefly luciferase and Renilla luciferase activities were measured using the dual luciferase reporter assay system (Promega, Madison, WI). […]

[4] = molecular target: TLR2/6 (Homo sapiens, UniProt O60603); test: NF-κβ (ELAM)-luciferase reporter assay in transiently transfected HEK293T cells, P2C; parameters: expressed in transfected cells; host or cells: HEK293T, transient transfection (Superfect); conditions: P2C 50 ng/mL 5 hrs; for IC50: NF-κβ reporter assay in HEK293T cells, 1 μM-250 μM, read-out: IC50 for human TLR2/6 signaling
Sequence of TLR2/6 (Homo sapiens, UniProt O60603) (O60603 21-784): as above
Procedure: as §1, §2
FIG. 12. C29 L blocks human TLR2/1 and TLR2/6 signaling comparably to C29 in HEK293T cells. (A-D) HEK293T cells were transiently transfected with reporter constructs for ELAM-luciferase, Renilla-luciferase, and pcDNA3-YFP-hTLR2. Cells were pretreated for 1 hr with C29 or C29L (1 μM-250 μM) and treated with P3C or P2C (50 ng/mL) for 5 hrs in the presence of C29 or C29L. Lysates were prepared and dual-luciferase assay performed. Data is representative of 2 independent experiments each carried out in duplicate.
HEK293T cells were cultured and plated overnight in 12-well tissue culture plates (2×10^5 cells/well). Transfection mixtures consisted of pcDNA3-YFP-hTLR2 or pcDNA3.1 control vector (1 μg/well each), pELAM (NF-κB)-luciferase (0.2 μg/well), and pRL-TK-Renilla luciferase (0.05 μg/well). Transfection was carried out using Superfect transfection reagent, cells were recovered for 48 h, and treated for 5 h with medium or stimuli in the presence/absence of C29. Cells were lysed in a passive lysis buffer (Promega, Madison, WI) and firefly luciferase and Renilla luciferase activities were measured using the dual luciferase reporter assay system (Promega, Madison, WI). […]

[5] = molecular target: T2, TLR2/1; test: P3C-induced IL-8 mRNA (qRT-PCR) in HEK-TLR2 stable transfectants; parameters: expressed in transfected cells; conditions: for percent inhibition, TLR2/1 versus TLR2/6 stimulation: HEK-TLR2 cells, human TLR2 signaling
[6] = molecular target: TLR2/1 (Mus musculus, UniProt Q9QUN7); test: Cytokine mRNA/protein in murine peritoneal macrophages stimulated with TLR2/1 agonists (P3C, LTA SA)
Sequence of TLR2/1 (Mus musculus, UniProt Q9QUN7) (Q9QUN7 25-784): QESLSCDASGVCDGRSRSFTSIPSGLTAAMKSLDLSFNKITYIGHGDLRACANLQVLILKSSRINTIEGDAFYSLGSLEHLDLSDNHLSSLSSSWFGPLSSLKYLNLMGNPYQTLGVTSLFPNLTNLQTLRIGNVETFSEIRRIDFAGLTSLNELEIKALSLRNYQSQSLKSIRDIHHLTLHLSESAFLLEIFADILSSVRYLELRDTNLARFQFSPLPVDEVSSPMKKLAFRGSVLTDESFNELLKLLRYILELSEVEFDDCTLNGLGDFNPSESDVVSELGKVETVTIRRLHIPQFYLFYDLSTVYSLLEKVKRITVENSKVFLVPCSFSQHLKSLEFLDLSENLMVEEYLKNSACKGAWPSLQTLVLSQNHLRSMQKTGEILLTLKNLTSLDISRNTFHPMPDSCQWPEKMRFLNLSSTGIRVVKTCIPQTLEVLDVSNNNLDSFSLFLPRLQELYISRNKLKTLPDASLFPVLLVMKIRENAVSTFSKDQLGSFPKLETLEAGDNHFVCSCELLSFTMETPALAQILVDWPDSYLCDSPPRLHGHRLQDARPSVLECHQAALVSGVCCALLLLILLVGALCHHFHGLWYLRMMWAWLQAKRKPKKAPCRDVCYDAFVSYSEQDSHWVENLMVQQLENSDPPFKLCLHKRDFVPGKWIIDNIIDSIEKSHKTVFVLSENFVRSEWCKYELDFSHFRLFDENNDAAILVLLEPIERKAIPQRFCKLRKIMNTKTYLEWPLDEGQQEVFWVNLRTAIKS

[7] = HEK293T expressing human TLR2, C29 50 μM

Sequence of TLR2/6 (Mus musculus, UniProt Q9QUN7) (Q9QUN7 25-784): as above

| TLR2/6 signaling pathway (TNF-α mRNA) ([1]; 25 μM or 50 μM, P2C 100 ng/mL 1 hr) | TLR4 signaling pathway (TNF-α mRNA) ([2]; 25 μM or 50 μM, LPS 100 ng/mL 1 hr) | TLR2/1-induced TNF-α gene expression ([6]; murine macrophages, 25 μM or 50 μM, P3C 50 ng/mL 1 hr) | Compound | zymosan-induced IL-1β mRNA ([1]; C29 50 μM, zymosan 10 μg/mL 3 hrs) | heat-killed Escherichia coli (HKEC)-induced IL-1β mRNA ([2]; C29 50 μM, MOI=0.1, 4 hrs, signals predominately through TLR4) | P3C-induced NF-κβ-luciferase activity [3, 7] | IC50 [3] | P2C-induced NF-κβ-luciferase activity [4, 7] | hTLR2/6-induced NF-κβ-luciferase activity ([4]; HEK293T transfected with human TLR2 and TLR6, C29 50 μM) | IC50 [4] | P3C-induced IL-8 mRNA ([5]; C29 10 μM or 50 μM, P3C 200 ng/mL 1 hr, HEK-TLR2 stable transfectants) | percent inhibition, TLR2/1 versus TLR2/6 stimulation [5] | P3C-induced IL-1β mRNA ([6]; murine macrophages, C29 50 μM, P3C 50 ng/mL 3 hrs) | LTA SA-induced IL-1β mRNA ([6]; murine macrophages, C29 50 μM, S. aureus LTA 1 μg/mL 3 hrs) | P3C-induced TNF-α mRNA ([6]; murine peritoneal macrophages, C29 25 μM or 50 μM, P3C 50 ng/mL 1 hr) | P3C-induced IL-12 p40 protein (ELISA) ([6]; murine peritoneal macrophages, C29 50 μM, P3C 50 ng/mL 4 or 6 hrs) |
| --- | --- | --- | --- | --- | --- | --- | --- | --- | --- | --- | --- | --- | --- | --- | --- | --- |
| – | – | – | COc1cccc(/C=N/c2cccc(C(=O)O)c2C)c1O [Compound C29] | did not inhibit | not blocked | inhibited | 19.7 µM | inhibited | significantly inhibited | 37.6 µM | blocked P3C- and P2C-induced IL-8 mRNA dose-dependently | consistently greater when TLR2/1 is stimulated | specifically blocked | specifically blocked | significantly reduced | significantly reduced |
| no effect | no effect | dose-dependently inhibited | COc1cccc(C=O)c1O [Compound C29L, ortho-vanillin] | – | – | – | 24.2 µM | – | – | 37.2 µM | – | consistently greater when TLR2/1 is stimulated | – | – | – | – |
